In patent publication US8871681B2, “Herbicidal compositions comprising 4-amino-3-chloro-5-fluoro-6-(4-chloro-2-fluoro-3-methoxyphenyl) pyridine-2-carboxylic acid or a derivative thereof and certain sulfonylureas” (Dow AgroSciences LLC, priority 2012, dated 2014):

Columns and labels:
[1] = system: BRAPP (Brachiaria platyphylla, broadleaf signalgrass); assay: Postemergence foliar-applied weed control, direct seeded rice, greenhouse (Example I); assay type: in vivo, Brachiaria platyphylla (Griseb.) Nash; conditions: Urochloa platyphylla, post-emergence, 504 h, 21 DAA, read-out: Visual Weed Control (%) Obs
Procedure, shortened: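 Greenhouse-grown plants in loam/sandy loam–grit soil (14 h photoperiod, ~29/26 °C) were sprayed postemergence at the first to fourth true leaf stage. Compound A (acid equivalent basis) and ALS-inhibiting sulfonylureas (active ingredient basis) were applied alone and in combination in 1.25% (v/v) crop oil concentrate at 187 L/ha by track sprayer; controls received solvent blank.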

[2] = system: SCPMA (Bolboschoenus maritimus or Schoenoplectus maritimus, sea clubrush); assay: In-water applied weed control, transplanted paddy rice, greenhouse (Example II); assay type: in vivo, Bolboschoenus maritimus (L.) Palla
Method: (§1) Weed seeds or nutlets of the desired test plant species were planted in puddled soil (mud) prepared by mixing a shredded, non-sterilized mineral soil (50.5 percent silt, 25.5 percent clay, and 24 percent sand, with a pH of about 7.6 and an organic matter content of about 2.9 percent) and water at a 1:1 volumetric ratio. The prepared mud was dispensed in 365 mL aliquots into 16-ounce (oz.) non-perforated plastic pots with a surface area of 86.59 square centimeters (cm^2) leaving a headspace of 3 centimeters (cm) in each pot. Rice seeds were planted in Sun Gro MetroMix® 306 planting mixture, which typically has a pH of 6.0 to 6.8 and an organic matter content of about 30 percent, in plastic plug trays. Seedlings at the second or third leaf stage of growth were transplanted into 860 mL of mud contained in 32-oz. non-perforated plastic pots with a surface area of 86.59 cm^2 4 days prior to herbicide application. The paddy was created by filling the headspace of the pots with 2.5 to 3 cm of water. When required to ensure good germination and healthy plants, a fungicide treatment and/or other chemical or physical treatment was applied. The plants were grown for 4-22 days in a greenhouse with an approximate 14 h photoperiod which was maintained at about 29′C during the day and 26° C. during the night. Nutrients were added as Osmocote® (19:6:12, N:P:K+minor nutrients) at 2 g per 16-oz. pot and 4 g per 32-oz. pot. Water was added on a regular basis to maintain the paddy flood, and supplemental lighting was provided with overhead metal halide 1000-Watt lamps as necessary. The plants were employed for testing when they reached the first through fourth true leaf stage.
(§2) Treatments consisted of the acid or esters of 4-amino-3-chloro-5-fluoro-6-(4-chloro-2-fluoro-3-methoxy-phenyl)pyridine-2-carboxylic acid (compound A) each formulated as an SC and various herbicidal components alone and in combination. Forms of compound A were applied on an acid equivalent basis.
(§3) Other herbicidal components were applied on an active ingredient basis and included acetolactate synthase (ALS)-inhibiting herbicides (sulfonylurea chemical class), azimsulfuron formulated as Gulliver®, bensulfuron-methyl formulated as Londax® 60DF, cyclosulfamuron (technical grade materail), ethoxysulfuron formulated as Sunrice® 15 WDG, flucetosulfuron formulated as Sukedachi® 1KG G, imazosulfuron formulated as Brazzos®, metsulfuron-methyl formulated as Lorate®, nicosulfuron formulated as Accent®, orthosulfamuron formulated as Strada® WG, propyrisulfuron formulated as Zeta One®, and rimsulfuron formulated as Matrix® WG.
(§4) Treatment requirements for each compound or herbicidal component were calculated based upon the rates being tested, the concentration of active ingredient or acid equivalent in the formulation, an application volume of 2 mL per component per pot, and an application area of 86.59 cm^2 per pot.
(§5) For formulated compounds, a measured amount was placed in an individual 100 or 200 mL glass vial and was dissolved in a volume of 1.25% (v/v) Agri-Dex® crop oil concentrate to obtain application solutions.
(§6) For technical grade compounds, a weighed amount was placed in an individual 100 to 200 mL glass vial and was dissolved in a volume of acetone to obtain concentrated stock solutions. […] The concentrated stock solutions obtained were diluted with an equivalent volume of an aqueous mixture containing 2.5% (v/v) crop oil concentrate so that the final application solutions contained 1.25% (v/v) crop oil concentrate.
(§7) Applications were made by injecting with a pipetter appropriate amounts of the application solutions, individually and sequentially, into the aqueous layer of the paddy. Control plants were treated in the same manner with the solvent blank. Applications were made so that all treated plant material received the same concentrations of acetone and crop oil concentrate. […]

[3] = system: LEFCH (Leptochloa chinensis, Chinese sprangletop); assay: as above; assay type: in vivo, Leptochloa chinensis (L.) Nees
Method: as §1, §2, §3, §4, §5, §6, §7

[4] = system: FIMMI (Fimbristylis miliacea, globe fringerush); assay: as above; assay type: in vivo, Fimbristylis miliacea (L.) Vahl
Method: as §1, §2, §3, §4, §5, §6, §7

[5] = system: LEFCH (Leptochloa chinensis, Chinese sprangletop); assay: Postemergence foliar-applied weed control, direct seeded rice, greenhouse (Example I); assay type: in vivo, Leptochloa chinensis (L.) Nees; conditions: Dinebra chinensis, post-emergence, 576 h, 24 DAA, read-out: Visual Weed Control (%) Obs
Description: (§8) Seeds or nutlets of the desired test plant species were planted in a soil matrix prepared by mixing a loam or sandy loam soil (e.g., 28.6 percent silt, 18.8 percent clay, and 52.6 percent sand, with a pH of about 5.8 and an organic matter content of about 1.8 percent) and calcareous grit in an 80 to 20 ratio. The soil matrix was contained in plastic pots with a volume of 1 quart and a surface area of 83.6 square centimeters (cm^2). When required to ensure good germination and healthy plants, a fungicide treatment and/or other chemical or physical treatment was applied. The plants were grown for 8-22 days in a greenhouse with an approximate 14 h photoperiod which was maintained at about 29° C. during the day and 26° C. during the night. Nutrients (Peters Excel® 15-5-15 5-Ca 2-Mg and iron chelate) were applied in the irrigation solution as needed and water was added on a regular basis. Supplemental lighting was provided with overhead metal halide 1000-Watt lamps as necessary. The plants were employed for testing when they reached the first through fourth true leaf stage.
(§9) Treatments consisted of the acid or esters of 4-amino-3-chloro-5-fluoro-6-(4-chloro-2-fluoro-3-methoxy-phenyl)pyridine-2-carboxylic acid (Compound A), each formulated as an SC, and various herbicidal components alone and in combination. Forms of compound A were applied on an acid equivalent basis.
(§10) Other herbicidal components were applied on an active ingredient basis and included acetolactate synthase (ALS)-inhibiting herbicides (sulfonylurea chemical class) azimsulfuron formulated as Gulliver®, bensulfuron-methyl formulated as Londax® 60DF, cyclosulfamuron (technical material), ethoxysulfuron formulated as Sunrice® 15 WDG, flazasulfuron formulated as Katana®, flucetosulfuron formulated as Sukedachi® 1KG G, foramsulfuron formulated as Option®, imazosulfuron formulated as Brazzos® WG, iodosulfuron-methyl-sodium formulated as Hussar®, metsulfuron-methyl formulated as Lorate®, nicosulfuron formulated as Accent®, orthosulfamuron formulated as Strada® WG, primisulfuron-methyl (technical material), propyrisulfuron formulated as Zeta One®, rimsulfuron formulated as Matrix® WG, sulfometuron-methyl formulated as Oust®, and trifloxysulfuron-sodium formulated as Monument® 75WG.
(§11) Treatment requirements were calculated based upon the rates being tested, the concentration of active ingredient or acid equivalent in the formulation, and a 12 mL application volume at a rate of 187 L/ha.
(§12) For treatments comprised of formulated compounds, measured amounts of compounds were placed individually in 25 mL glass vials and diluted in a volume of 1.25% (v/v) Agri-Dex® crop oil concentrated to obtain 12× stock solutions. […] Application solutions were prepared by adding an appropriate amount of each stock solution (e.g., 1 mL) and diluted to the appropriate final concentrations with the addition of 10 mL of an aqueous mixture of 1.25% (v/v) crop oil concentrate so that the final spray solutions contained 1.25+/−0.05% (v/v) Agrcrop oil concentrate.
(§13) For treatments comprised of formulated and technical compounds, weighed amounts of the technical materials were placed individually in 25 mL glass vials and dissolved in a volume of 97:3 v/v acetone/DMSO to obtain 12× stock solutions, and measured amounts of the formulated compounds were placed individually in 25 mL glass vials and diluted in a volume of 1.25% (v/v) crop oil concentrate to obtain 12× stock solutions. […] Application solutions were prepared by adding an appropriate amount of each stock solution (e.g., 1 mL) and diluted to the appropriate final concentrations with the addition of an appropriate amount of an aqueous mixture of 1.5% (v/v) crop oil concentrate so that the final spray solutions contained 1.25% (v/v) crop oil concentrate. […]

[6] = system: DIGSA (Digitaria sanguinalis, large crabgrass); assay: as above; assay type: in vivo, Digitaria sanguinalis (L.) Scop.
Description: as §8, §9, §10, §11, §12, §13

[7] = system: ECHCO (Echinochloa colona, junglerice); assay: In-water applied weed control, transplanted paddy rice, greenhouse (Example II); assay type: in vivo, Echinochloa colona (L.) Link
Method: as §1, §2, §3, §4, §5, §6, §7

[8] = system: IPOHE (Ipomoea hederacea, ivyleaf morningglory); assay: Postemergence foliar-applied weed control, direct seeded rice, greenhouse (Example I); assay type: in vivo, Ipomoea hederacea Jacq.; conditions: 20 DAA
Description: as §8, §9, §10, §11, §12, §13

[9] = system: CYPES (Cyperus esculentus, yellow nutsedge); assay: as above; assay type: in vivo, Cyperus esculentus L.; conditions: 20 DAA
Description: as §8, §9, §10, §11, §12, §13

[10] = system: CYPRO (Cyperus rotundus, purple nutsedge); assay: In-water applied weed control, transplanted paddy rice, greenhouse (Example II); assay type: in vivo, Cyperus rotundus L.
Method: as §1, §2, §3, §4, §5, §6, §7

[11] = system: ECHCG (Echinochloa crus-galli, barnyardgrass); assay: as above; assay type: in vivo, Echinochloa crus-galli (L.) Beauv.
Method: as §1, §2, §3, §4, §5
For technical grade compounds, a weighed amount was placed in an individual 100 to 200 mL glass vial and was dissolved in a volume of acetone to obtain concentrated stock solutions. […]

Structure (SMILES): CCCc1ccc2nc(Cl)c(S(=O)(=O)NC(=O)Nc3nc(OC)cc(OC)n3)n2n1 [Propyrisulfuron, 2-chloro-N-[[(4,6-dimethoxy-2-pyrimidinyl)amino]carbonyl]-6-propylimidazo[1,2-b]pyridazine-3-sulfonamide, reference compound]
- pest or weed control at 11.25 g/ha ([1]; 11.25 gai/ha): 0%
- pest or weed control at 22.5 g/ha ([1]; 22.5 gai/ha): 20%
- pest or weed control at 45 g/ha ([1]; 45 gai/ha): 10%
- Visual Weed Control (%) - 21 DAA SCPMA Obs ([2]; Table 48, 11.25 gai/ha alone): 80%
- Visual Weed Control (%) - 21 DAA LEFCH Obs ([3]; Table 47, 22.5 gai/ha alone): 0%
- Visual Weed Control (%) - 21 DAA LEFCH Obs ([3]; Table 47, 45 gai/ha alone): 0%
- Visual Weed Control (%) - 21 DAA FIMMI Obs ([4]; Table 48, 11.25 gai/ha alone): 85%
- Visual Weed Control (%) - 21 DAA FIMMI Obs ([4]; Table 48, 22.5 gai/ha alone): 88%
- Visual Weed Control (%) - 21 DAA FIMMI Obs ([4]; Table 48, 45 gai/ha alone): 95%

Structure (SMILES): COc1cc(OC)nc(NC(=O)NS(=O)(=O)c2c(Cl)nc3ccccn23)n1 [Imazosulfuron, 2-chloro-N-[[(4,6-dimethoxy-2-pyrimidinyl)amino]carbonyl]imidazo[1,2-a]pyridine-3-sulfonamide, reference compound]
- pest or weed control at 21 g/ha ([5]; 21 gai/ha): 0%
- pest or weed control at 42 g/ha ([5]; 42 gai/ha): 0%
- pest or weed control at 84 g/ha ([5]; 84 gai/ha): 0%
- Visual Weed Control (%) Obs ([6]; 24 DAA, 21 gai/ha): 0%
- Visual Weed Control (%) Obs ([6]; 24 DAA, 42 gai/ha): 0%
- Visual Weed Control (%) - 20 DAA SCPMA Obs ([2]; Table 38, 168 gai/ha alone): 65%
- Visual Weed Control (%) - 20 DAA SCPMA Obs ([2]; Table 39, 168 gai/ha alone): 65%
- Visual Weed Control (%) - 20 DAA SCPMA Obs ([2]; Table 40, 168 gai/ha alone): 65%
- Visual Weed Control (%) - 21 DAA ECHCO Obs ([7]; Table 38, 22.5 gai/ha alone): 20%
- Visual Weed Control (%) - 21 DAA ECHCO Obs ([7]; Table 38, 45 gai/ha alone): 20%
- Visual Weed Control (%) - 21 DAA ECHCO Obs ([7]; Table 39, 45 gai/ha alone): 20%

Structure (SMILES): CCS(=O)(=O)c1cccnc1S(=O)(=O)NC(=O)Nc1nc(OC)cc(OC)n1 [Rimsulfuron, N-[[(4,6-dimethoxy-2-pyrimidinyl)amino]carbonyl]-3-(ethylsulfonyl)-2-pyridinesulfonamide, reference compound]
- Visual Weed Control (%) Obs ([8]; 4.38 gai/ha): 60%
- Visual Weed Control (%) Obs ([8]; 8.75 gai/ha): 75%
- Visual Weed Control (%) Obs ([6]; 20 DAA, 8.75 gai/ha): 70%
- Visual Weed Control (%) Obs ([9]; 2.19 gai/ha): 0%
- Visual Weed Control (%) Obs ([9]; 4.38 gai/ha): 0%
- Visual Weed Control (%) Obs ([9]; 8.75 gai/ha): 60%
- Visual Weed Control (%) - 20 DAA LEFCH Obs ([3]; Table 49, 4.38 gai/ha alone): 0%
- Visual Weed Control (%) - 20 DAA LEFCH Obs ([3]; Table 50, 4.38 gai/ha alone): 0%
- Visual Weed Control (%) - 20 DAA LEFCH Obs ([3]; Table 50, 8.75 gai/ha alone): 30%
- Visual Weed Control (%) - 20 DAA CYPRO Obs ([10]; Table 49, 4.38 gai/ha alone): 0%
- Visual Weed Control (%) - 20 DAA CYPRO Obs ([10]; Table 50, 4.38 gai/ha alone): 0%
- Visual Weed Control (%) - 20 DAA ECHCG Obs ([11]; Table 50, 4.38 gai/ha alone): 0%
- Visual Weed Control (%) - 20 DAA ECHCG Obs ([11]; Table 50, 8.75 gai/ha alone): 0%
